Data as given in publication PMC7037052, “Predicting the Blood-Brain Barrier Permeability of New Drug-Like Compounds via HPLC with Various Stationary Phases” (Molecules, 2020).

Columns and labels:
Format in all cases: physicochemical
[1] = RP-HPLC retention on Purosphere RP-18e (ODS) column, buffer pH 7.4-acetonitrile; conditions: for log kw, ODS: extrapolated to buffer pH 7.4 as mobile phase, 25 °C; for s ODS: slope of Soczewiński-Wachtmeister equation, acetonitrile φ 0.3–0.6
Description: (§1) Retention parameters reported as the log k values were calculated by the expression:(1) logk=log(tR−t0)/t0 where tR and t0 are the retention times of the solute and a non-retained compound (citric acid), respectively. They were used to calculate the log kw values, i.e., logarithms of retention parameter in the buffer as the mobile phase. For this purpose the Soczewiński-Wachtmeister’s equation was used:log k = log kw − sφ(2) where φ is the volume fraction of organic modifier in the mobile phase; k and kw are retention parameters corresponding to mixed effluent and buffer as the mobile phase, respectively. The slope s is characteristic of a given solute and chromatographic system. Strong linear relationships between log k and φ values were found for all the compounds in the range of effluent composition examined (R^2 > 0.9). The log kw values determined for the ODS (log kw, ODS), IAM (log kw, IAM) and Cholester (log kw, Cholester) columns were intercorrelated and the following linear relationships with a very good statistical quality were obtained:log kw, ODS = 0.691(± 0.094) + 0.982(± 0.044) log kw, IAM(3) SD = 0.257; R^2 = 0.8880; N = 65 log kw, ODS = 0.911(± 0.062) + 0.765(± 0.025) log kw, Cholester(4) SD = 0.192; R^2 = 0.9371; N = 65 log kw, IAM = 0.356(± 0.073) + 0.721(± 0.029) log kw, Cholester(5) SD = 0.224; R^2 = 0.9068; N = 65
(§2) Shimadzu Vp (Shimadzu, Izabelin, Poland) liquid chromatographic system equipped with LC 10AT pump, SPD 10A UV-Vis detector, SCL 10A system controller, CTO-10 AS chromatographic oven and Rheodyne injector valve with a 20 µL loop was applied in HPLC measurements. Three stationary phases were employed: • Purosphere RP-18e (ODS), 125 × 4 mm i.d., 5 µm (Merck); • IAM.PC.DD2 100 × 4.6 mm i.d., 10 µm (Regis Chemicals Company, Morton Grove, IL, USA); • Cosmosil Cholester, 75 × 2 mm i.d., 2.5 µm (Genore, Warsaw, Poland).
(§3) As mobile phases buffer-acetonitrile mixtures were used. The buffer was prepared from 0.01 mol L^−1 solutions of Na2HPO4 and citric acid and the pH 7.4 value was fixed before mixing with organic modifier. With the ODS column acetonitrile concentration in the effluent, expressed as a volume fraction (φ, v/v), was changed in the range 0.3–0.6, with the constant step of 0.1. The flow rate was 1 mL min^−1. With the IAM column acetonitrile concentration was changed in the range 0.2–0.5, also with the constant step of 0.1 and the flow rate was 1.3 mL min^−1. With the Cosmosil Cholester column acetonitrile concentration was changed in the range 0.4–0.6, with the constant step of 0.05 and the flow rate was 0.4 mL min^−1. Samples of test compounds were dissolved in acetonitrile—c.a. 0.005 mg mL^−1. […] They were detected under UV light at 210 and 254 nm. All measurements were carried out at 25 °C. The dead time values were measured from non-retained compound (citric acid) peaks. All reported log kw values are the average of at least three independent measurements. The extrapolated retention coefficients (logs kw) achieved by HPLC on ODS, IAM and Cholester stationary phases were used for modelling the log BB permeation of 65 drug-like compounds employed as a whole test set (Table 1).

[2] = RP-HPLC retention on Cosmosil Cholester column, buffer pH 7.4-acetonitrile; conditions: for log kw, Cholester: extrapolated to buffer pH 7.4 as mobile phase, 25 °C; for s Cholester: slope of Soczewiński-Wachtmeister equation, acetonitrile φ 0.4–0.6
Description: as §1, §2, §3

[3] = RP-HPLC retention on IAM.PC.DD2 (immobilized artificial membrane) column, buffer pH 7.4-acetonitrile; conditions: for log kw, IAM: extrapolated to buffer pH 7.4 as mobile phase, 25 °C; for s IAM: slope of Soczewiński-Wachtmeister equation, acetonitrile φ 0.2–0.5
Description: as §1, §2, §3

| SMILES | log kw, ODS [1] | s ODS [1] | log kw, Cholester [2] | s Cholester [2] | log kw, IAM [3] | s IAM [3] |
| --- | --- | --- | --- | --- | --- | --- |
| COc1ccc(N2CCn3c2nnc(-c2ccccc2)c3=O)cc1 [Compound 34] | 2.59 | 4.62 | 2.27 | 3.80 | 1.71 | 3.91 |
| CCOc1ccc(N2CCn3c2nnc(-c2ccccc2)c3=O)cc1 [Compound 35] | 3.09 | 5.33 | 2.80 | 4.61 | 2.14 | 4.48 |
| Cc1cccc(N2CCn3c2nnc(-c2ccccc2)c3=O)c1C [Compound 36] | 2.74 | 4.85 | 2.34 | 3.60 | 1.85 | 4.05 |
| O=c1c(-c2ccccc2)nnc2n1CCN2c1ccccc1Cl [Compound 37] | 2.43 | 4.60 | 1.96 | 3.65 | 1.73 | 3.84 |
| O=c1c(-c2ccccc2)nnc2n1CCN2c1cccc(Cl)c1 [Compound 38] | 3.29 | 5.70 | 3.20 | 5.20 | 2.64 | 5.41 |
| O=c1c(-c2ccccc2)nnc2n1CCN2c1ccc(Cl)c(Cl)c1 [Compound 40] | 3.48 | 5.90 | 3.86 | 6.02 | 3.26 | 6.40 |
| O=c1c(Cc2ccccc2)nnc2n1CCN2c1ccccc1 [Compound 41] | 2.90 | 5.02 | 2.23 | 3.75 | 3.26 | 6.45 |
| O=c1c(Cc2cccc(Cl)c2)nnc2n1CCN2c1ccccc1 [Compound 43] | 3.59 | 5.85 | 2.90 | 4.80 | 2.48 | 5.18 |
| O=c1c(Cc2ccc(Cl)cc2)nnc2n1CCN2c1ccccc1 [Compound 44] | 3.60 | 5.62 | 3.01 | 4.70 | 2.39 | 4.81 |
| Cc1ccc(N2CCn3c2nnc(Cc2ccccc2)c3=O)cc1 [Compound 45] | 3.35 | 5.55 | 2.74 | 4.59 | 2.15 | 4.69 |
| Cc1ccc(Cc2nnc3n(c2=O)CCN3c2ccc(C)cc2)cc1 [Compound 46] | 3.04 | 5.30 | 3.15 | 5.05 | 2.51 | 5.22 |
| Cc1ccc(N2CCn3c2nnc(Cc2cccc(C)c2)c3=O)cc1 [Compound 47] | 3.09 | 5.24 | 3.09 | 5.06 | 2.59 | 5.14 |
| Cc1ccc(N2CCn3c2nnc(Cc2ccccc2Cl)c3=O)cc1 [Compound 48] | 3.12 | 5.11 | 3.24 | 4.90 | 2.65 | 5.21 |
| Cc1ccc(N2CCn3c2nnc(Cc2cccc(Cl)c2)c3=O)cc1 [Compound 49] | 3.31 | 5.41 | 3.40 | 5.33 | 2.78 | 5.50 |
| Cc1ccc(N2CCn3c2nnc(Cc2ccc(Cl)cc2)c3=O)cc1 [Compound 50] | 3.22 | 5.55 | 3.39 | 5.34 | 2.81 | 5.62 |
| CCOc1ccc(N2CCn3c2nnc(Cc2ccc(C)cc2)c3=O)cc1 [Compound 52] | 3.14 | 5.36 | 3.07 | 5.02 | 2.43 | 5.02 |
| CCOc1ccc(N2CCn3c2nnc(Cc2ccccc2Cl)c3=O)cc1 [Compound 53] | 2.93 | 5.02 | 3.21 | 5.15 | 2.51 | 5.17 |
| CCOc1ccc(N2CCn3c2nnc(Cc2cccc(Cl)c2)c3=O)cc1 [Compound 54] | 3.35 | 5.55 | 3.31 | 5.22 | 2.73 | 5.61 |
| CCOc1ccc(N2CCn3c2nnc(Cc2ccc(Cl)cc2)c3=O)cc1 [Compound 55] | 3.32 | 5.66 | 3.36 | 5.35 | 2.72 | 5.44 |
| Cc1ccccc1N1CCn2c1nnc(Cc1ccccc1Cl)c2=O [Compound 56] | 3.01 | 4.95 | 2.34 | 4.05 | 2.02 | 4.31 |
| O=c1c(Cc2ccccc2)nnc2n1CCN2c1ccc(Cl)cc1 [Compound 57] | 3.11 | 5.05 | 2.98 | 4.85 | 2.52 | 5.06 |
| O=c1c(Cc2ccccc2Cl)nnc2n1CCN2c1ccc(Cl)cc1 [Compound 58] | 3.55 | 5.65 | 3.74 | 5.62 | 3.22 | 6.32 |
